{
  "source": "patent US20260125428A1",
  "about": "“SYNTHETIC TRIPLEX PEPTIDE NUCLEIC ACID-BASED INHIBITORS FOR CANCER THERAPY” (University of Connecticut, priority 2022, published 2026)",
  "key": {"U2932 cells [1]": {"test_system": "U2932 cells", "experiment": "Cell viability (trypan blue) of U2932 cells", "format": "cell-based", "conditions": "24 h, different doses", "description": "(§1) FIGS. 4A-F show effect of cellular uptake of indicated PNAs. (4A) Expression levels of C-Myc oncogene in U2932 (DLBCL), Raji and Daudi cells (Burkitt's lymphoma) in comparison to the peripheral blood mononuclear cells (PBMC). (4B) Cell viability of U2932 cells after 24 h treatment with indicated PNAs at different doses. (4C) Cell viability of Raji cells after 24 h treatment with indicated PNAs at different doses. (4D) Gene expression levels of C-Myc oncogene and its downstream targets including MCL1 and EZH2 in U2932 cells after 24 h of treatment with γPNA1-NLS, γPNA2-NLS, and ScrγPNA4-NLS at 8 μM. (4E) Gene expression levels of C-Myc oncogene and its downstream targets including BCL2 and EZH2 in Raji cells after 24 h of treatment with γPNA1-NLS, γPNA2-NLS, and ScrγPNA4-NLS at 8 μM. (4F) Gene expression levels of C-Myc in U2932 cells after 24 h treatment with γPNA2-NLS and ScrγPNA4-NLS at indicated doses."}, "C-Myc oncogene [2]": {"test_system": "C-Myc oncogene", "experiment": "Gene expression (RT-PCR) of C-Myc and downstream targets in U2932 cells", "format": "cell-based, human", "conditions": "24 h", "description": "as §1\n(§2) Gene expression: The levels of mRNA were measured in different cell lines using real time-polymerase chain reaction (RT-PCR). Both untreated (PBMC, U2932, Raji, Daudi) and PNA treated lymphoma cells were collected at the end of treatment. Total RNA was extracted using Qiagen RNeasy® kit (USA) and concentration was measured by Nanodrop™. cDNA was synthesized using high capacity cDNA reverse transcription kit (Applied Biosystem, USA) following the recommended cycling conditions. Taqman® gene expression assay for C-Myc, EZH2, BCL2, MCL1 and GAPDH were used to amplify the respective mRNAs using the specified cycling conditions in the CFX Real-Time PCR detection system. GAPDH was used as the reference gene and fold change in mRNA expression was obtained by normalizing against the untreated cells or cells treated with HDAC inhibitors."}, "Raji cells": {"test_system": "Raji cells", "experiment": "Cell viability (trypan blue) of Raji cells", "format": "cell-based", "conditions": "24 h, different doses", "description": "as §1"}, "U2932 cells [3]": {"test_system": "U2932 cells", "experiment": "Viability of U2932 cells, combination of PNAs with HDAC inhibitors and other drugs", "description": "FIGS. 9A-D show cell viability after treatment with indicated PNAs. (9A) The viability of U2932 cells after treatment with γPNA1-NLS (8 μM), romidepsin (10 nM) and combination of γPNA1-NLS with romidepsin over 96 hours. (9B) The viability of U2932 cells after treatment with γPNA2-NLS (8 μM), romidepsin (10 nM) and combination of γPNA2-NLS with romidepsin over 96 hours. (9C) Fold change in C-Myc levels after combination of γPNA1-NLS and γPNA2-NLS with romidepsin in comparison to only romidepsin treatment. (9D) Fold change in BCL2 levels after combination of γPNA1-NLS and γPNA2-NLS with romidepsin in comparison to only romidepsin treatment.\nFIGS. 10A-F show the viability of U2932 cells after indicated treatment. (10A) Viability of U2932 cells after treatment with γPNA2-NLS […], vorinostat (2.5 μM) and combination of γPNA2-NLS with vorinostat over 96 hours. (10B) The viability of U2932 cells after treatment with γPNA2-NLS (8 μM), valproic acid (2 mM) and combination of γPNA2-NLS with valproic acid over 96 hours. […] (10E) The viability of U2932 cells after treatment with CHOP (cyclophosphamide, vincristine, doxorubicin, prednisone) and combination of γPNA2-NLS with CHOP at different doses.\nCell viability: U2932 and Raji cells were seeded in 96 well plates at 20,000 cells/well. PNAs were added to the media at different concentrations (1, 2, 4, and 8 μM). […] The cell viability was then measured via trypan blue staining on day 1, 2, and 4."}, "C-Myc oncogene [4]": {"test_system": "C-Myc oncogene", "experiment": "Gene expression (RT-PCR) in U2932 cells after combination treatment", "format": "cell-based, human", "description": "as §2"}, "C-Myc oncogene [5]": {"test_system": "C-Myc oncogene", "experiment": "Gene expression (RT-PCR) of C-Myc and downstream targets in Raji cells", "format": "cell-based, human", "conditions": "24 h, 8 μM", "description": "as §1, §2"}, "U2932 derived xenografts": {"test_system": "U2932 derived xenografts", "experiment": "Tumor growth and survival study in U2932 derived xenograft mice", "format": "in vivo", "conditions": "5 mg/kg systemic on day 1, 4, 7, and 10; for survival of the mice: saline 21 days", "description": "FIGS. 7A-C show survival data of mice after systemic administration of indicated PNAs. (7A) Graph representing the tumor volume of U2932 xenografts after systemic treatment with indicated PNAs (n≥4 mice per group). PNAs were administered systemically on day 1, 4, 7, and 10 (n≥4 mice per group). (7B) The survival of U2932 derived xenograft mice after treatment with γPNA2-NLS, γPNA3, and ScrγPNA4-NLS at 5 mg/kg dose in comparison to the control (saline) mice. (7C) Complete blood count analysis of mice from different groups at the end of the study. RBC: red blood cells; WBC: white blood cells; HGB: hemoglobin; PLT: platelets; HCT: hematocrit; MCH: […]. (D) Blood chemistry analysis of mice from different groups at the end of the study. ALT: alanine transaminase; AST: aspartate transaminase; BUN: blood urea nitrogen; LDH: Lactate dehydrogenase. Results are presented as mean±SEM (n≥4).\nIn vivo studies in xenograft mice model: U2932 derived xenografts were generated by implanting 10 million cells subcutaneously on the lower right flank of the female NSG mice (NOD.Cg-Prkdc^scidIl2rg^tm1Wj1/SzJ, #005557, Jackson Laboratories, USA) of 5-6 weeks. The mice were maintained in the animal care facility at the University of Connecticut following the required Institutional Animal Care and Use Committee guidelines (IACUC). Mice developed palpable tumors after 3-4 weeks of implantation. Tumor dimensions including length (l), breadth (b), and height (h) were measured using a caliper and volume was calculated using the formula for ellipsoid (0.5236×lbh).\nSurvival study: Mice bearing tumors about 100-150 mm^3 were divided into 4 groups. Mice were treated with either γPNA2-NLS, γPNA3, Scr-γPNA4-NLS, or saline. PNAs were administered at 5 mg/kg dose on day 1, 4, 7, and 10. The change in tumor volume was measured every day. Mice were euthanized when the tumor volume reached 2000 mm^3. Blood was collected via cardiac punter in 1.5 ml tubes containing 0.5 M EDTA. Organs including tumor, liver, kidney, spleen, heart and lung were collected. Tumor fraction and all organs were kept in 10% formalin and submitted for histology. The complete blood count analysis was performed on the collected blood samples using Sysmex CBC analyzer. Plasma was separated from the blood samples and submitted to Antech diagnostic for blood chemistry analysis to quantify the levels of alanine transaminase, lactate dehydrogenase, aspartate transaminase and blood urea nitrogen."}},
  "data": [
    {"substance": "JJJTJJJT-OOO-TCCCTCCCTCCGTTCTTTTTCCC-K-OOO-VKRKKKP (gamma PNA tail clamp; linkers; NLS peptide; gammaPNA to target C-Myc Exon 1; misc_feature 1 JJJTJJJT-linker- is covalently linked to the backbone, wherein J is pseudoisocytosine and the linker is 11-Amino-3,6,9-Trioxaundecanoic Acid (DCHA), represented as -OOO-; misc_feature 23 -K-linker-SEQ ID NO: 5 is covalently linked to the backbone, wherein the linker is 11-Amino-3,6,9-Trioxaundecanoic Acid (DCHA), represented as -OOO-; modified_base 1) [γPNA2-NLS]", "values": [
      {"measurement": "viability of U2932 cells", "setting": "U2932 cells [1]", "result": "significant decrease in the viability"},
      {"measurement": "dose of maximum knockdown of C-Myc", "setting": "C-Myc oncogene [2]; different doses", "result": 8, "unit": "µM"},
      {"measurement": "decrease in the levels of C-Myc", "setting": "C-Myc oncogene [2]; RT-PCR, 8 μM", "result": "> 50", "unit": "%"},
      {"measurement": "levels of downstream targets MCL1 and EZH2", "setting": "C-Myc oncogene [2]; RT-PCR, 8 μM", "result": "significant decrease in the levels of MCL1 and EZH2"},
      {"measurement": "viability of Raji cells", "setting": "Raji cells", "result": "significant decrease in the viability"},
      {"measurement": "viability, combination with venetoclax", "setting": "U2932 cells [3]; U2932 cells, over time", "result": "significant reduction in viability"},
      {"measurement": "combination effect with romidepsin on viability (in words)", "setting": "U2932 cells [3]; U2932 cells, romidepsin 10 nM, PNA 8 uM", "result": "synergistic activity"},
      {"measurement": "viability, combination with CHOP", "setting": "U2932 cells [3]; U2932 cells, trypan blue, 24 h and 48 h", "result": "significant reduction in viability"},
      {"measurement": "viability, combination with valproic acid in comparison to the individual treatments", "setting": "U2932 cells [3]; U2932 cells, valproic acid 2 mM, PNA 8 μM, over 96 hours", "result": "significant decrease in viability"},
      {"measurement": "combination effect with vorinostat on viability", "setting": "U2932 cells [3]; U2932 cells, vorinostat 2.5 μM, over 96 hours", "result": "synergistic activity"},
      {"measurement": "decrease in U2932 cell viability, combination with romidepsin", "setting": "U2932 cells [3]; romidepsin 10 nM pretreatment 24 h, PNA 8 uM, day 4", "result": "approximately 80%"},
      {"measurement": "knockdown of c-myc, combination with valproic acid", "setting": "C-Myc oncogene [4]; 96 h, valproic acid 2 mM", "result": "higher knockdown of c-myc"},
      {"measurement": "knockdown of c-myc, combination with vorinostat", "setting": "C-Myc oncogene [4]; 96 h, vorinostat 2.5 uM, PNA 8 μM", "result": "higher knockdown of c-myc"},
      {"measurement": "BCL-2 levels, combination with romidepsin in comparison to only romidepsin", "setting": "C-Myc oncogene [4]; day 4", "result": "reduced levels"},
      {"measurement": "decrease in C-Myc levels, combination with romidepsin compared with only romidepsin", "setting": "C-Myc oncogene [4]; day 4, PNA 8 uM, romidepsin 10 nM", "result": "> 90", "unit": "%"},
      {"measurement": "decrease in the levels of C-Myc", "setting": "C-Myc oncogene [5]", "result": "> 50", "unit": "%"},
      {"measurement": "levels of downstream targets BCL2 and EZH2", "setting": "C-Myc oncogene [5]", "result": "downregulation of BCL2 and EZH2"},
      {"measurement": "efficacy on tumor growth in comparison to γPNA3", "setting": "U2932 derived xenografts", "result": "superior efficacy"},
      {"measurement": "tumor growth in comparison to the control groups", "setting": "U2932 derived xenografts", "result": "significantly reduced tumor growth"},
      {"measurement": "survival of the mice", "setting": "U2932 derived xenografts", "result": 29, "unit": "days"}
    ]},
    {"substance": "X5CCTCCCTTCTTCCTTCTCCCTTGX2 (gamma PNA; NLS peptide; scramble gammaPNA; misc_feature 1 TJJJJJJTJ-linker- is covalently linked to the backbone, wherein J is pseudoisocytosine and the linker is 11-Amino-3,6,9-Trioxaundecanoic Acid (DCHA), represented as -OOO-; misc_feature 23 -K-linker-SEQ ID NO: 5 is covalently linked to the backbone, wherein the linker is 11-Amino-3,6,9-Trioxaundecanoic Acid (DCHA), represented as -OOO-; modified_base 1..23 OTHER; p) [ScrγPNA4-NLS, reference compound]", "values": [
      {"measurement": "viability of U2932 cells", "setting": "U2932 cells [1]", "result": "no impact on the viability"},
      {"measurement": "knockdown of C-Myc at different doses (in words)", "setting": "C-Myc oncogene [2]; different doses", "result": "no activity"},
      {"measurement": "levels of downstream targets MCL1 and EZH2", "setting": "C-Myc oncogene [2]; RT-PCR, 8 μM", "result": "no change in their levels"},
      {"measurement": "viability of Raji cells", "setting": "Raji cells", "result": "no impact on the viability"},
      {"measurement": "levels of downstream targets BCL2 and EZH2", "setting": "C-Myc oncogene [5]", "result": "no change in their levels"},
      {"measurement": "survival of the mice", "setting": "U2932 derived xenografts", "result": 19.5, "unit": "days"}
    ]}
  ]
}
